This is an account of results in paper PMC8405091, “Microwave-assisted Phospha-Michael addition reactions in the 13α-oestrone series and in vitro antiproliferative properties” (Journal of Enzyme Inhibition and Medicinal Chemistry, 2021).

Each structure is given as a SMILES string.

What all share (assay type): cell-based, human
Test [1] has as its system SiHa cells. Description: MTT antiproliferative assay, SiHa. As to conditions: 72 h; for inhibition at 10 µM / inhibition at 30 µM: Homo sapiens; for inhibition at 10 µM: read-out: Growth inhibition, % ± SEM, 10 μM; for inhibition at 30 µM: read-out: Growth inhibition, % ± SEM, 30 μM. As for the experimental part: (§1) The antiproliferative properties of the newly synthesized compounds (9–20) and their starting materials (4 and 5) were determined on a panel of human adherent cancer cell lines. MCF-7, MDA-MB-231 and T47D were isolated from breast cancers differing in biochemical background, while A2780 cells were isolated from ovarian cancer. HeLa and SiHa are cervical cancer cell lines positive for HPV-18 and HPV-16, respectively, while C33-A cervical cancer cells are negative for HPV. Moreover, two oropharyngeal cancer cell lines were also utilized: the HPV-negative UPCI-SCC-131 and HPV-16 positive UPCI-SCC-154. The cancer selectivity of compounds was tested on the non-cancerous mouse embryo fibroblast cell line NIH/3T3. All cell lines were purchased from European Collection of Cell Cultures (ECCAC, Salisbury, UK) exception for SiHa and C33-A (American Tissue Culture Collection, Manassas, VA, USA) and HN-SCC-131 and UPCI-SCC-154 (German Collection of Microorganisms and Cell Cultures GmbH, Braunschweig, Germany). Cells were cultivated in minimal essential medium supplemented with 10% fetal bovine serum, 1% non-essential amino acids and an antibiotic–antimycotic mixture. The medium of oropharyngeal cancer cells additionally contained 2.0 mM L-glutamine. All media and supplements were obtained from Lonza Group Ltd., Basel, Switzerland. Near-confluent cancer cells were seeded onto a 96-well microplate at a density of 5,000 cells/well, except for C33-A which were seeded at 10,000/well. After overnight standing, new medium containing the tested compounds at 10 and 30 µM final concentration was added. After incubation for 72 h at 37 °C in humidified air containing 5% CO2, the living cells were assayed by the addition of 20 μL of 5 mg/ml 3-(4,5-dimethylthiazol-2-yl)-2,5-diphenyltetrazolium bromide (MTT) solution. MTT was converted by intact mitochondrial reductase and precipitated as purple crystals during a 4-h contact period. The medium was next removed and the precipitated formazan crystals were dissolved in 100 μL of DMSO during a 60-min period of shaking at 37 ^оC.
(§2) All in vitro experiments were carried out twice with five parallels. Stock solutions of the tested substances (10 mM) were prepared in DMSO. […] Cisplatin (Ebewe Pharma GmbH, Unterach, Austria) was used as positive control.
On the technique in general: Formazan colour is commonly taken as a measure of viable cells.

Test [2] deals with A2780 cells. Briefly: MTT antiproliferative assay, A2780. The conditions noted are these: 72 h; for inhibition at 10 µM / inhibition at 30 µM: Homo sapiens, A2780, 72 h, read-out: Growth inhibition, % ± SEM. How it is done:
as §1, §2

The subject of test [3] is UPCI-SCC-131 cells. Description: MTT antiproliferative assay, UPCI-SCC-131. As to conditions: 72 h, 72 h; for inhibition at 10 µM / inhibition at 30 µM: Homo sapiens, read-out: Growth inhibition, % ± SEM. As for the experimental part:
as §1, §2

Test [4] deals with HeLa cells. Briefly: MTT antiproliferative assay, HeLa. The conditions noted are these: 72 h; for inhibition at 10 µM / inhibition at 30 µM: Homo sapiens; for inhibition at 10 µM: read-out: Growth inhibition, % ± SEM, 10 μM; for inhibition at 30 µM: read-out: Growth inhibition, % ± SEM, 30 μM. As for the experimental part:
as §1, §2

Test [5] has as its system MCF-7 cells. Briefly: MTT antiproliferative assay, MCF-7. As to conditions: 72 h; for inhibition at 10 µM / inhibition at 30 µM: Homo sapiens, MCF7, 72 h, read-out: Growth inhibition, % ± SEM. As for the experimental part:
as §1, §2

Test [6] concerns C33-A cells. Briefly: MTT antiproliferative assay, C33-A. As to conditions: 72 h; for inhibition at 10 µM / inhibition at 30 µM: Homo sapiens, C-33-A; for inhibition at 10 µM: read-out: Growth inhibition, % ± SEM, C33-A, 10 μM; for inhibition at 30 µM: read-out: Growth inhibition, % ± SEM, C33-A, 30 μM; for Growth inhibition; % ± SEM: C33-A. As for the experimental part:
as §1, §2

Test [7] concerns T47D cells. Description: MTT antiproliferative assay, T47D. As to conditions: 72 h; for inhibition at 10 µM / inhibition at 30 µM: Homo sapiens; for inhibition at 10 µM: read-out: Growth inhibition, % ± SEM, 10 μM; for inhibition at 30 µM: read-out: Growth inhibition, % ± SEM, 30 μM. As for the experimental part: as §1, §2
Test [8] has as its system UPCI-SCC-154 cells. Briefly: MTT antiproliferative assay, UPCI-SCC-154. As to conditions: 72 h, 72 h; for inhibition at 10 µM / inhibition at 30 µM: Homo sapiens, read-out: Growth inhibition, % ± SEM. How it is done: as §1, §2
Test [9] concerns MDA-MB-231 cells. Briefly: MTT antiproliferative assay, MDA-MB-231. As to conditions: for inhibition at 10 µM / inhibition at 30 µM: Homo sapiens, MDA-MB-231, 72 h, read-out: Growth inhibition, % ± SEM; for Growth inhibition; % ± SEM: 72 h. As for the experimental part:
as §1, §2

As for `Cc1ccc(P(=O)(C[C@H]2C[C@H]3[C@@H]4CCc5cc(OCc6ccccc6)ccc5[C@H]4CC[C@@]3(C)C2=O)c2ccc(C)cc2)cc1` [Compound 16, [(3-benzyloxy-17-oxo-13α-oestra-1,3,5(10)-trien-16β-yl)methyl]di-p-tolylphosphine oxide], the inhibition (as a rule, the drop in the measured response relative to a control, in per cent) at 10 µM is below 20% in test [1]; below 20% in test [2] (A2780, 10 μM); 49.5 ± 2.27% in [3] (UPCI-SCC-131, 10 μM); below 20% in test [4]; below 20% in test [5] (MCF-7, 10 μM); below 20% in test [6]. For the same compound, the inhibition at 10 µM in test [7] is 23.6 ± 1.22%; in test [8] (UPCI-SCC-154, 10 μM) it was below 20%; in test [9] it was below 20%. Besides, the inhibition at 30 µM in test [1] was below 20%; in test [2] (A2780, 30 μM) it was 67.3 ± 3.04%; in test [3] (UPCI-SCC-131, 30 μM), 67.4 ± 1.11%; in test [4] it was 31.8 ± 2.27%; in test [5] (MCF-7, 30 μM), below 20%; in [6], 59.1 ± 0.69%. Besides, the inhibition at 30 µM in test [7] was 64.5 ± 1.6%; in test [8] (UPCI-SCC-154, 30 μM) it was 31.6 ± 2.41%; in [9], below 20%.
`COc1ccc2c(c1)CCC1C2CCC2(C)C(=O)C(CP(=O)(c3ccc4ccccc4c3)c3ccc4ccccc4c3)CC12` (stereo not drawn) [Compound 17, [(3-methoxy-17-oxo-13α-oestra-1,3,5(10)-trien-16α-yl)methyl]di(naphtalen-2-yl)phosphine oxide]: the inhibition at 10 µM in test [1] is below 20%; in test [2] (A2780, 10 μM), below 20%; in [3] (UPCI-SCC-131, 10 μM) it was 26.5 ± 1.7%; in [4] it was below 20%; in test [5] (MCF-7, 10 μM) it was below 20%; in test [6], below 20%. Further, the inhibition at 10 µM in [7] is below 20%; in [8] (UPCI-SCC-154, 10 μM) it was below 20%; in [9] it was below 20%. Moreover, the inhibition at 30 µM in [1] was below 20%; in test [2] (A2780, 30 μM), below 20%; in [3] (UPCI-SCC-131, 30 μM) it was 45.3 ± 1.84%; in test [4], below 20%; in [5] (MCF-7, 30 μM), below 20%; in [6] it was below 20%. Further, the inhibition at 30 µM in test [7] is 27.1 ± 2.93%; in test [8] (UPCI-SCC-154, 30 μM) it was 20.3 ± 2.69%; in test [9], below 20%.
Regarding `COc1ccc2c(c1)CCC1C2CCC2(C)C(=O)C(CP(=O)(c3ccc4ccccc4c3)c3ccc4ccccc4c3)CC12` (stereo not drawn) [Compound 18, [(3-methoxy-17-oxo-13α-oestra-1,3,5(10)-trien-16β-yl)methyl]di(naphtalen-2-yl)phosphine oxide], the “Growth inhibition; % ± SEM” value in test [1] (10 μM) was “– (Inhibition values <20% are not presented.)”; in [1] (30 μM), “– (Inhibition values <20% are not presented.)”; in test [2] (A2780, 10 μM), “– (Inhibition values <20% are not presented.)”; in test [2] (A2780, 30 μM), “– (Inhibition values <20% are not presented.)”; in [3] (UPCI-SCC-131, 10 μM, 10 µM), 46.39 ± 1.19%; in test [3] (UPCI-SCC-131, 30 μM, 30 µM), 64.55 ± 1.29%. Also, the “Growth inhibition; % ± SEM” value in [4] (10 μM) was “– (Inhibition values <20% are not presented.)”; in test [4] (30 μM) it was “– (Inhibition values <20% are not presented.)”; in test [5] (MCF-7, 10 μM) it was “– (Inhibition values <20% are not presented.)”; in test [5] (MCF-7, 30 μM) it was “– (Inhibition values <20% are not presented.)”; in test [6] (10 μM) it was “– (Inhibition values <20% are not presented.)”; in test [6] (30 μM), 20.25 ± 1.01%. Further, the “Growth inhibition; % ± SEM” value was “– (Inhibition values <20% are not presented.)” in [7] (10 μM); “– (Inhibition values <20% are not presented.)” in [7] (30 μM); “– (Inhibition values <20% are not presented.)” in test [8] (UPCI-SCC-154, 10 μM); “– (Inhibition values <20% are not presented.)” in [8] (UPCI-SCC-154, 30 μM, 30 µM); “– (Inhibition values <20% are not presented.)” in test [9] (MDA-MB-231, 10 μM); “– (Inhibition values <20% are not presented.)” in [9] (MDA-MB-231, 30 μM).
Consider `CC12CCC3c4ccc(OCc5ccccc5)cc4CCC3C1CC(CP(=O)(c1ccc3ccccc3c1)c1ccc3ccccc3c1)C2=O` (stereo not drawn) [Compound 19, [(3-benzyloxy-17-oxo-13α-oestra-1,3,5(10)-trien-16α-yl)methyl]di(naphtalen-2-yl)phosphine oxide], for which the “Growth inhibition; % ± SEM” value is given as 40.30 ± 2.00% in test [1] (30 μM); “– (Inhibition values <20% are not presented.)” in [3] (UPCI-SCC-131, 10 μM, 10 µM); 40.98 ± 2.94% in test [3] (UPCI-SCC-131, 30 μM, 30 µM); 48.89 ± 0.90% in test [4] (30 μM); 48.81 ± 2.15% in test [8] (UPCI-SCC-154, 30 μM, 30 µM). Besides, the inhibition at 10 µM in [1] was 23.2 ± 1.36%; in test [2] (A2780, 10 μM) it was below 20%; in [4], 31 ± 1.11%; in test [5] (MCF-7, 10 μM), 31.8 ± 2.47%; in [6], 28.1 ± 1.39%; in test [7], 59.4 ± 2.44%. Moreover, the inhibition at 10 µM is 34.3 ± 2.8% in [8] (UPCI-SCC-154, 10 μM) and below 20% in [9]. Further, the inhibition at 30 µM is 28.5 ± 2.35% in [2] (A2780, 30 μM); 40.6 ± 1.71% in [5] (MCF-7, 30 μM); 34.7 ± 1.7% in [6]; 62.4 ± 1.7% in test [7]; below 20% in test [9].
For `CC12CCC3c4ccc(OCc5ccccc5)cc4CCC3C1CC(CP(=O)(c1ccc3ccccc3c1)c1ccc3ccccc3c1)C2=O` (stereo not drawn) [Compound 20, [(3-benzyloxy-17-oxo-13α-oestra-1,3,5(10)-trien-16β-yl)methyl]di(naphtalen-2-yl)phosphine oxide], the “Growth inhibition; % ± SEM” value in [1] (10 μM) is listed as “– (Inhibition values <20% are not presented.)”; in test [1] (30 μM) it was “– (Inhibition values <20% are not presented.)”; in test [2] (A2780, 10 μM), “– (Inhibition values <20% are not presented.)”; in test [2] (A2780, 30 μM, 30 µM), “– (Inhibition values <20% are not presented.)”; in test [3] (UPCI-SCC-131, 10 μM, 10 µM), 48.25 ± 1.46%; in [3] (UPCI-SCC-131, 30 μM, 30 µM), 61.12 ± 1.32%. Also, the “Growth inhibition; % ± SEM” value in test [4] (10 μM) was “– (Inhibition values <20% are not presented.)”; in [4] (30 μM) it was “– (Inhibition values <20% are not presented.)”; in test [5] (MCF-7, 10 μM, 10 µM), 28.24 ± 1.66%; in test [5] (MCF-7, 30 μM, 30 µM), 22.21 ± 2.78%; in [6] (10 μM), 27.94 ± 0.89%; in test [6] (30 μM) it was 26.53 ± 1.06%. Moreover, the “Growth inhibition; % ± SEM” value in test [7] (10 μM) is 66.09 ± 0.76%; in test [7] (30 μM) it was 68.56 ± 1.81%; in [8] (UPCI-SCC-154, 10 μM, 10 µM) it was 30.97 ± 2.54%; in test [8] (UPCI-SCC-154, 30 μM, 30 µM) it was 28.72 ± 1.11%; in test [9] (MDA-MB-231, 10 μM) it was “– (Inhibition values <20% are not presented.)”; in test [9] (MDA-MB-231, 30 μM), “– (Inhibition values <20% are not presented.)”.
